Assay results: US12083137B2, “Triazole bisphosphonate geranylgeranyl diphosphate synthase inhibitors” (BOARD OF REGENTS OF THE UNIVERSITY OF NEBRASKA, priority 2017, dated 2024)
Like-named read-outs stand apart in the source and are kept apart here.

How the values were obtained:
FDPS = FDPS (Homo sapiens (Human), UniProt P14324); assay: FDPS enzyme assay; type: biochemical
Method: (§1) FIG. 9 GGDPS and FDPS enzyme assay data for compounds 19, 20, and 21. Each assay was performed in three independent experiments (R1, R2, R3) and each compound was tested in duplicate at each concentration.
(§2) Each assay was performed in three independent experiments (R1, R2, R3) and each compound was tested in duplicate at each concentration.

Recombinant GGDPS = Recombinant GGDPS (Homo sapiens (Human), UniProt O95749); assay: GGDPS enzyme assay; type: biochemical; conditions: for Selectivity for GGDPS to FDPS: ratio FDPS IC50 / GGDPS IC50
Chain of Recombinant GGDPS (O95749 whole entry): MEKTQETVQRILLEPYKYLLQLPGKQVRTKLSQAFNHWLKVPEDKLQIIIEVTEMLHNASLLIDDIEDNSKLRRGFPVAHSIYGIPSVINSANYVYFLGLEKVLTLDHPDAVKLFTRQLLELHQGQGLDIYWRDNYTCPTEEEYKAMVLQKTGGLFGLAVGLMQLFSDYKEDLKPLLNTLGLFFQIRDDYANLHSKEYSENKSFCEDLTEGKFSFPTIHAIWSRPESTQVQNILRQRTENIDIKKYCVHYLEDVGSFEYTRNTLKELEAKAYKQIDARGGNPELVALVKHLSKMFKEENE
Method: as §1, §2
GGDPS Enzyme assay (FIG. 9, 10, 11): Recombinant GGDPS was obtained from MyBioSource (San Diego, CA). Recombinant enzyme (20 nM GGDPS) was incubated with assay buffer (50 mM Tris-HCl, pH 7.7, 20 mM MgCl2, 5 mM TCEP, 5 μg/mL BSA) and test compounds for 10 minutes at room temperature. The reaction was initiated by the addition of 10 μM FPP and 10 μM [^14C]-IPP and was carried out at 37° C. for 30 minutes. The reaction was stopped by the addition of saturated NaCl. Radiolabeled GGPP was extracted with n-butanol and counted via liquid scintillation counting. CompuSyn software (ComboSyn, Inc.) was used to analyze the concentration response curves and determine the IC50 values.

RPMI-8226 cells [1] = assay: Cellular protein geranylgeranylation: Rap1a immunoblot plus intracellular lambda light chain ELISA; type: cell-based, Human; conditions: 48 h; for Cellular LEC (lowest effective concentration): lowest concentration with visible unmodified Rap1a band and statistically significant increase in intracellular lambda light chain; for relative cellular activity (comparison in words): myeloma cells
Method: (§3) RPMI-8226 cells were incubated for 48 h in the presence or absence of lovastatin (Lov, 10 μM) or varying concentrations of the test compounds. Intracellular lambda light chain concentrations were determined via ELISA. Data are expressed as a percentage of control (mean±SD, n=3). The * denotes p<0.05 per unpaired two-tailed t-test.
The impact of substituents at the α-carbon of the compounds disclosed herein on cellular activity was assessed in myeloma cells. Impairment of cellular protein geranylgeranylation was determined via two methods: 1) ELISA for intracellular lambda light chain which is a marker for disruption of Rab GTPase geranyl-geranylation (FIGS. 1, 3, 5, 7) and 2) immunoblot analysis for unmodified Rap1a (a substrate of GGTase I) (FIGS. 2, 4, 6, 8). Lovastatin, an HMG-CoA reductase inhibitor, was included as a positive control. […] Next, the impact of the olefin stereochemistry on biological activity was determined.
Immunoblot analysis (FIG. 2, 4, 6, 8): Multiple myeloma cells were incubated (37° C. and 5% CO2) with test compounds for 48 hours in RPMI-1640 media containing 10% fetal bovine serum and penicillin-streptomycin. Whole cell lysate was obtained using RIPA buffer (0.15 M NaCl, 1% sodium deoxycholate, 0.1% SODS, 1% Triton (v/v) X-100, 0.05 M Tris HCl) containing protease and phosphatase inhibitors. Protein content was determined using the bicinchoninic acid (BCA) method (Pierce Chemical, Rockford, IL). Equivalent amounts of cell lysate were resolved by SODS-PAGE, transferred to polyvinylidene difluoride membrane, probed with the appropriate primary antibodies, and detected using HRP-linked secondary antibodies and Bio-Rad Clarity ECL Substrate Western blotting reagents per manufacturer's protocols.
(§4) Lambda light chain ELISA (FIG. 1, 3, 5, 7): Human lambda light chain kit (Bethyl Laboratories, Montgomery, TX) was used to quantify intracellular monoclonal protein levels of whole cell lysate. Lambda light chain levels were normalized to total protein levels (as determined by BCA).

RPMI-8226 cells [2] = assay: Lambda light chain ELISA (intracellular lambda light chain, marker of Rab GTPase geranylgeranylation disruption); type: cell-based, Human; conditions: 48 h
Method: as §3, §4

[3] = 20 nM recombinant GGDPS, 10 μM FPP, 10 μM [14C]-IPP, 37° C. 30 minutes, read-out: GGDPS IC50

Chain of FDPS (P14324 whole entry, species assumed): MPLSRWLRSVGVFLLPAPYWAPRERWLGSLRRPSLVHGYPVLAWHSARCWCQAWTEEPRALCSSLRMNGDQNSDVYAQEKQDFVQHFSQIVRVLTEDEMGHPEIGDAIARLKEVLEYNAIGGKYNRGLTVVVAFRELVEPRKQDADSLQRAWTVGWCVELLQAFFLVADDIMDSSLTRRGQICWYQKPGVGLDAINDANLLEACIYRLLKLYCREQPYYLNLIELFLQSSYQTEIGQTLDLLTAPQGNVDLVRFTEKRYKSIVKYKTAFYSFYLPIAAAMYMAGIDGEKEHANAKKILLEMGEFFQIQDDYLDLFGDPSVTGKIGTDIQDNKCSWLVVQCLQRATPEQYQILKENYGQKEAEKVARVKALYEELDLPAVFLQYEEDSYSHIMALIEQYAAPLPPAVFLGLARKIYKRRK

Row | Compound | IC50 (FDPS; read-out: FDPS IC50) [µM] | specificity (selectivity) for GGDPS over FDPS (Recombinant GGDPS) | IC50 (Recombinant GGDPS; [3]) [µM] | Selectivity for GGDPS to FDPS (Recombinant GGDPS) | Cellular LEC (lowest effective concentration) (RPMI-8226 cells [1]) [µM] | relative cellular activity (comparison in words) (RPMI-8226 cells [1]) | improvement in cellular activity of POM-version versus corresponding salt 17 (RPMI-8226 cells [2]; FIG. 7, RPMI-8226 cells) | relative GGDPS inhibitory activity in enzymatic assays (comparison in words) (Recombinant GGDPS) | IC50 (FDPS) [µM] | IC50 (Recombinant GGDPS) [µM] | cellular potency of Z-isomer relative to the E-isomer 21 (RPMI-8226 cells [2]; FIG. 5, RPMI-8226 cells)
1 | CC(C)=CCC/C(C)=C/Cn1cc(CC(C)(P(=O)([O-])[O-])P(=O)([O-])[O-])nn1.[Na+].[Na+].[Na+].[Na+] [Compound 21, Sodium (E)-(1-(1-(3,7-dimethylocta-2,6-dien-1-yl)-1H-1,2,3-triazol-4-yl)propane-2,2-diyl)bis(phosphonate)] | 43.1 ± 2.98 | at least 3.5 fold | 0.125 ± 0.027 | 345 | 0.02 | – | – | – | – | – | –
2 | CCC(Cc1cn(C/C=C(\C)CCC=C(C)C)nn1)(P(=O)(O)O)P(=O)(O)O [Compound 28] | 94.3 ± 20.6 | – | 5.85 ± 1.3 | 16 | 2.5 | less potent than either the parent compound 31 | – | – | – | – | –
3 | CC(C)=CCC/C(C)=C\CCn1cc(CC(C)(P(=O)(OCOC(=O)C(C)(C)C)OCOC(=O)C(C)(C)C)P(=O)(OCOC(=O)C(C)(C)C)OCOC(=O)C(C)(C)C)nn1 [Compound 25, (Z)-(((1-(1-(4,8-dimethylnona-3,7-dien-1-yl)-1H-1,2,3-triazol-4-yl)propane-2,2-diyl)bis(oxo-15-phosphanetriyl))tetrakis(oxy))tetrakis(methylene) tetrakis(2,2-dimethylpropanoate)] | – | – | – | – | – | – | approximately 10 fold | – | – | – | –
4 | CC(C)=CCCC(C)=CCn1cc(CC(C)(P(=O)([O-])[O-])P(=O)([O-])[O-])nn1.[Na+].[Na+].[Na+].[Na+] [Compound 19, Sodium (1-(1-(3,7-dimethylocta-2,6-dien-1-yl)-1H-1,2,3-triazol-4-yl)propane-2,2-diyl)bis(phosphonate)] | 24.1 ± 3.15 | – | 0.1 ± 0.019 | 241 | 0.03 | – | – | more potent than its corresponding non-methylated analogue 31 | – | – | –
5 | CC(C)=CCC/C(C)=C\CCn1cc(CC(C)(P(=O)([O-])[O-])P(=O)([O-])[O-])nn1.[Na+].[Na+].[Na+].[Na+] [Compound 17, Sodium (Z)-(1-(1-(4,8-dimethylnona-3,7-dien-1-yl)-1H-1,2,3-triazol-4-yl)propane-2,2-diyl)bis(phosphonate)] | – | – | – | >108 | 0.1 | – | – | – | > 100 | 0.92 ± 0.089 | –
6 | CC(C)=CCC/C(C)=C\Cn1cc(CC(C)(P(=O)([O-])[O-])P(=O)([O-])[O-])nn1.[Na+].[Na+].[Na+].[Na+] [Compound 20, Sodium (Z)-(1-(1-(3,7-dimethylocta-2,6-dien-1-yl)-1H-1,2,3-triazol-4-yl)propane-2,2-diyl)bis(phosphonate)] | 59.6 ± 15 | – | 0.086 ± 0.022 | 693 | 0.025 | – | – | more potent than the E isomer 21 | – | – | approximately 50 fold
7 | CC(C)=CCCC(C)=CCCn1cc(CC(C)(P(=O)([O-])[O-])P(=O)([O-])[O-])nn1.[Na+].[Na+].[Na+].[Na+] [Compound 16, Sodium (1-(1-(4,8-dimethylnona-3,7-dien-1-yl)-1H-1,2,3-triazol-4-yl)propane-2,2-diyl)bis(phosphonate)] | – | – | – | 49 | 0.1 | – | – | very similar to the individual isomers | 62.2 ± 7.22 | 1.27 ± 0.303 | –
8 | CC(C)=CCC/C(C)=C/CCn1cc(CC(C)(P(=O)([O-])[O-])P(=O)([O-])[O-])nn1.[Na+].[Na+].[Na+].[Na+] [Compound 18, Sodium (E)-(1-(1-(4,8-dimethylnona-3,7-dien-1-yl)-1H-1,2,3-triazol-4-yl)propane-2,2-diyl)bis(phosphonate)] | – | – | – | 3.5 | 5.0 | slightly more potent than the Z-isomer | – | – | 71.4 ± 24.2 | 20.5 ± 2.3 | –
